Legend:
[1] = Topical carbopol gel formulation: permeability and skin irritation; settings: pH 6.8
Procedure: A formulation in accordance with embodiments of the present invention appropriate for topical administration was obtained by adding 200 mg of carbopol (Carbopol 934P; Lubrizol, USA) to 2.5 mL of distilled water and solubilizing 200 mg of 6OHM-6-HITC in 2 mL of ethanol. An appropriate amount of the ethanolic dispersion was transferred to the aqueous dispersion of carbopol. Methanol (1.25 mL) was mixed with 1 mL of ethanol and added to the 6OHM-6-HITC and carbopol mixture, which was gradually stirred, and carbopol was allowed to soak for 2 h. Triethanolamine (100 mg; Sigma-Aldrich, USA) was added to neutralize the carbopol solution and facilitate the formation of a gel, after which the pH was adjusted to 6.8. A vehicle cream was prepared using the same ingredients and identical methods as the cream, but 6OHM-6-HITC was omitted from the mixture. […] For topical treatment, 6OHM-6-HITC or the vehicle cream (concentration, 200 mg/cm^2) was spread on the irradiated skin of pigs twice daily for 35 days, and the first application was performed immediately after irradiation.

[2] = test system: irradiated skin of pigs; assay: Skin biopsy histology (hematoxylin and eosin): basal cell density and epidermal thickness; format: in vivo, Gottingen mini-pigs
Procedure: A 5 mm punch biopsy was performed under anesthesia to obtain a skin sample from the non-irradiated healthy skin and the irradiated skin area 3, 7, 21, and 35 days after irradiation. After collection, skin biopsy samples were pinned to a cork to maintain the 5 mm size. Biopsy samples of non-irradiated skin were obtained from each pig before irradiation. All biopsy samples were processed and embedded in paraffin wax after fixation in 10% buffered formalin, then cut into 4 μm thick coronal sections and deparaffinized. Next, the sections were stained with hematoxylin and eosin and examined by optical microscopy. The longest rete ridge on each slide was selected and measured from the bottom of the basal layer to the bottom of the stratum corneum, avoiding the areas in which the inclusion appeared to be oblique. The mean values were then calculated based on the measurements of each section on each slide. The cell density of the basal layers was determined by counting the cells in the basement membrane at a depth of at least 5 mm. The results were expressed as the number of cells per millimeter of basement membrane.
The data were expressed as the means±the standard error of the mean (SEM) values. Differences between groups were evaluated by one-way analysis of variance (ANOVA) followed by a Student-Newman-Keuls post hoc test for multiple comparisons. In all cases, a p<0.05 was considered significant.

[3] = test system: mouse tongues; assay: X-ray-induced oral mucositis in mice: oral mucositis score; format: in vivo, ICR mice
Procedure: In a second example for illustrating embodiments of the present invention, six-week-old ICR mice (30-40 g) obtained from Institute of Animal Breeding and Genetics, University of Gottingen, Germany were used. The animals were housed in a room maintained at 22±2° C. under a 12-h light-dark cycle with lights on at 7:00 a.m. Mice were fed a standard rodent diet and had free access to water. In addition, no antibiotic supplements were used. All animal experiments were performed in compliance to The German Animal Welfare Act. The mice (n=20 per group) were anesthetized (pentobarbital sodium, 50 mg/kg body weight, i.p.) and then irradiated. Mice had to be irradiated only at the tip of the tongue, so the rest of the body was shielded with a lead device (thickness, 0.5 mm). The tongue was fixed to the outer surface of the lead device using adhesive tape and irradiated with a single radiation dose of 20 Gy. Radiation was generated using a 150 kV potential (20 mA) X-ray source at a focal distance of 350 mm and beam-hardened by a 1.0-mm aluminum filtration system (MBR-1520R-3; Hitachi, Tokyo, Japan). The dose rate was 5.1 Gy/min. The 6OHM-6-HITC compound was dissolved in a small volume of 1 M NaOH solution. The pH was adjusted to 7 with 1 M HCL. The concentration was adjusted to 3 mg/mL or 15 mg/mL in 0.9% (physiologic) saline solution. The body weight was recorded and the tongues were observed daily after irradiation. 6OHM-6-HITC was injected via the intraperitoneal route 30 min before irradiation. The control group was irradiated but without administering the 6OHM-6-HITC compound.
The scoring of oral mucositis was based on a modification of the method of Sonis et al. To assess the severity of oral mucositis, mice were anesthetized with isoflurane every day. The oral mucositis score was: 0=normal; 1=partial hyperemia, erythema and swelling; 2=overall hyperemia, erythema and swelling; 3=epidermolysis, hyperemia and erythema; 4=extensive epidermolysis and bleeding; 5=bleeding and abscesses. Myeloperoxidase (MPO) activity is a marker for neutrophils in inflamed tissue. MPO activity was measured in mouse tongues using a modification of the method of Chen et al. After mice had been killed by cervical dislocation 12 days after irradiation, tongue samples (n=10 per group) were removed and stored at −70° C. until required for assay. […] MPO activity was measured using a Microplate Reader (NJ-2300; Biotec, Tokyo, Japan) at 450 nm. MPO activity was calculated by measuring the slope of absorbance calibrated using MPO standards (Wako Biochemicals) and expressed as MPO/g tongue. […] TBARS levels were measured using the Microplate Reader (Biotec) at 540 nm. TBARS levels were calculated by measuring the slope of absorbance calibrated using TBARS standards and expressed as TBARS/g tongue. […]

COc1cc2c(CCCCN=C=S)c[nH]c2cc1O [6OHM-6-HITC]
permeability of 6OHM-6-HITC from topical gel formulation [1]: highest permeability | skin irritation by topical gel formulation [1]: without causing skin irritation | basal cell counts (density) in the epidermis ([2]; 21 days after irradiation, p<0.01 vs. vehicle-treated irradiation group): significantly ameliorated | thickness of the epidermis ([2]; 35 days after irradiation, p<0.01 vs. vehicle-treated irradiation group): prevented this decrease | basal cell counts (density) in the epidermis ([2]; 35 days after irradiation, p<0.05 vs. vehicle-treated irradiation group): significantly ameliorated | total oral mucositis score between day-0 and day-12 vs. control group ([3]; 30 mg/kg i.p.): significantly lower | total oral mucositis score between day-0 and day-12 vs. control group ([3]; 300 mg/kg i.p.): significantly lower | oral mucositis score vs. control group ([3]; 300 mg/kg i.p., day-10): significantly lower | oral mucositis score vs. control group ([3]; 300 mg/kg i.p., day-12): significantly lower
